The values below come from patent publication US9844536B2, “3-(1H-imidazo[4,5-C]pyridin-2-yl)-1H-pyrazolo[3,4-C]pyridine and therapeutic uses thereof” (Samumed, LLC, priority 2014, dated 2017).

Holding throughout (format): cell-based
One experiment has as its system ARPE-19 cells. Put plainly: Transdifferentiation of ARPE-19 cells into eye neuronal cells [photoreceptors], PAX6 staining. Particulars: Homo sapiens, fixed at 40 hours, PAX6 antibody staining, normalized to DMSO. The method, then:
The above synthesized compounds were screened using ARPE-19 cells [a spontaneously arising retinal pigment epithelia (RPE) cell line] to determine their ability to transdifferentiate ARPE-19 into eye neuronal cells [photoreceptors].
ARPE-19 cells are cultured in standard culture medium containing Dulbecco's Modified Eagle's Medium and Ham's F12 Nutrient Mixture (DMEM/F12) mix (1:1)+GlutaMax with 1% penicillin-Streptomycin and 10% FBS (Fetal Bovine Serum). Cells are incubated at 37° C. with 5% CO2. Cells are trypsinized and plated onto 384-well pre-spotted plate at a density of 3000 cells/well in 50 uL of media. Plating media: DMEM/F12 (1:1)+3% charcoal filtered-FBS+GlutaMax+1% pen/Strep. Cells are incubated at 37° C. with 5% CO2. At 40 hours, cells were fixed for 15 min with 10% Buffered Formalin. Cells were then washed 3 times with PBS for 5 min each, permeablize using 0.3% Triton X-100 in 1×PBS for 30 min, block for 1 hr with 2% BSA in 1×PBS with 0.1% Triton X-100. The primary antibody (1:100 PAX6 Santa Cruz Biotech; sc-81649) was diluted and 10 μL/well was added to the cells. The cells were incubated overnight at 4° C. […] Readings were normalized to DMSO only treated cells, and normalized activities were utilized for EC50 calculations using the dose-response log (activator) vs. response-variable slope (four parameters) nonlinear regression feature available in GraphPad Prism 5.0 or 6.0.

A further experiment concerns LL29 cells. Put plainly: Inhibition of the fibrotic process (αSMA staining) in TGF-β1 treated primary human fibroblasts from IPF patients. The note with it: Fibroblast, 96 h, TGF-β1 20 ng/mL, 4 days, dose-response 10 μM to 1.87 nM, read-out: Inhibition of fibrosis EC50. The gist of the method:
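LL29 IPF lung fibroblasts in 1% FBS were stimulated with TGF-β1 (20 ng/mL) and treated 4 days at 37 °C with compound (11 points, 10 μM–1.87 nM, 0.1% DMSO). The % αSMA-positive cells, imaged after excluding SYTOX-positive dead cells, was normalized to TGF-β1/DMSO wells. EC50 came from nonlinear regression over triplicates.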

In experiment [1] the test system is Wnt pathway (Sp5-Luc reporter, SW480 cells). Put plainly: Sp5-Luc reporter gene screening assay for Wnt activity in SW480 colon carcinoma cells. The note with it: Homo sapiens. Summed up:
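IC50 values come from variable-slope four-parameter fits of luciferase signal normalized to DMSO wells. Stable Sp5-Luc reporter SW480 colon carcinoma cells were exposed to compounds in a 3-fold dilution series (source plates from 10 mM stock) for forty-two hours at 37 °C.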

The term EC50 denotes the midpoint of the concentration-response curve. The IC50 is the concentration needed to halve the response being measured. Low values mean inhibition by little substance, high ones a need for much substance.

Regarding `NC1CN(c2cncc(-c3cc4c(-c5nc6c(-c7cccc(F)c7)nccc6[nH]5)n[nH]c4cn3)n2)C1` [Compound 942, 1-(6-(3-(4-(3-Fluorophenyl)-1H-imidazo[4,5-c]pyridin-2-yl)-1H-pyrazolo[3,4-c]pyridin-5-yl)pyrazin-2-yl)azetidin-3-amine], the results for the EC50 in the experiment on ARPE-19 cells and in the experiment with LL29 cells were 5 nM and 303 nM, respectively. Moreover, in experiment [1], half-maximal inhibition (IC50) was put at 46 nM.
In the case of `CN(C)CCOc1cncc(-c2cc3c(-c4nc5c(-c6cccc(F)c6)nccc5[nH]4)n[nH]c3cn2)c1` [Compound 947, 2-((5-(3-(4-(3-Fluorophenyl)-1H-imidazo[4,5-c]pyridin-2-yl)-1H-pyrazolo [3,4-c]pyridin-5-yl)pyridin-3-yl)oxy)-N,N-dimethylethan-1-amine], the EC50 was 35 nM in the experiment on ARPE-19 cells and 484 nM with LL29 cells. The same compound had an IC50 in experiment [1] of 99 nM.
